Structures can show the parent of a compound that is named as a salt.
Columns and labels:
[1] = target: human prostatic tissue; test: In vitro human prostate model: block of phenylephrine-induced contraction of human prostatic tissue; assay type: cell-based
Excerpt: The protocol for these experiments is given below.
Functional Properties of α1 Antagonists in the Human Prostate
The efficacy of α1 adrenergic antagonists for the treatment of benign prostatic hyperplasia (BPH) is related to their ability to elicit relaxation of prostate smooth muscle. An index of this efficacy can be obtained by determining the potency of al antagonists to antagonize the contraction of human prostatic tissue induced by an α1 agonist “in vitro”. Furthermore, by comparing the potency of subtype selective α1 antagonists in binding assays using human α1 receptors with their potency to inhibit agonist-induced smooth muscle contraction, it is possible to determine which of the α1 adrenergic receptor subtypes is involved in the contraction of prostate smooth muscle.
Prostatic adenomas were obtained at the time of surgery from patients with symptomatic BPH. […] The baths were maintained at 37° C. and continuously oxygenated with 5% CO2 and 95% O2. Isometric tension was measured with a Grass Instrument FT03 force transducer interfaced with a computer. Tissue strips were contracted with varying concentrations of phenylephrine after incubating for 20 minutes in the absence and presence of at least three different concentrations of antagonist. Dose-response curves for phenylephrine were constructed, and the antagonist potency (pA2) was estimated by the dose-ratio method. The concentration of some antagonists in the tissue bath was assessed by measuring the displacement of [3H]prazosin by aliquots of the bath medium, using membrane preparations of the cloned human α1C receptor. This control was necessary to account for losses of antagonist due to adsorption to the tissue bath and/or metabolism during the time the antagonists were equilibrated with the prostate tissue.

[2] = test system: canine prostate; test: In vivo dog prostate model: inhibition of phenylephrine-induced increase in urethral pressure in anesthetized dogs
Protocol: Protocol for In Vivo Evaluation of Compounds in Canine Prostate
Adult male mongrel dogs more than one year of age were chosen for the model. After induction of general anesthesia using sodium pentobarbital (25 mg/Kg i.v.), the animals were intubated and allowed to breathe spontaneously. An arterial catheter was inserted via the femoral artery to monitor blood pressure and i.v. line was inserted into the leg for fluid and drug administration. A constant saline infusion was maintained at 40 to 50 mL/h. Next, a seven cm lower abdominal incision was made one cm lateral to the penis.
The bladder, prostate and a short segment of urethra were identified and isolated, without damage to the nerves or blood vessels. A cystotomy incision was made through which the pressure catheter was inserted and positioned in the prostatic urethra. The cystotomy was not closed, but the wound edges were sutured to stop bleeding. The tip of the catheter was positioned just distal to the prostate and secured in place with an O-silk tie around the urethra. A second holding suture at the bladder neck secured the catheter in place.
Fluid, either water or saline, was pumped by a Harvard infusion pump at 0.1 mL/min through a Gould pressure transducer into the catheter. The fluid exists at a port in the catheter which is in the prostatic urethra. Occlusion of the port, by contraction of the prostate, blocks the flow and a pressure wave is created. This pressure is transmitted back through the catheter to the transducer which is attached to a Gould recorder. Squeezing the prostate gland caused an increase in urethral pressure which verified the correct position in the urethra.
The compounds were tested as follows: A dose response curve was first generated for phenylephrine alone, in doses ranging from one μg/Kg to 50 μg/Kg. The absolute rise in urethral pressure was recorded for each dose and the next dose given when the urethral pressure returned to baseline. Phenylephrine dose response curves were generated in all animals tested. Increasing doses of compounds were then given, and the phenylephrine dose response curve repeated in the prepense of each dose of the compound. No animal received more than one compound; four animals were used to test each compound. To test for tachyphylaxis, four separate dogs were challenged with repeated phenylephrine doses for six hrs, the usual length of each experiment. From the dose-effect data, the inhibition constant (Ki) and the median-effect dose (ED50) were calculated. Both the Ki and ED50 values given are calculated by using microcomputer software and an IBM-PC.

| SMILES | pKi ([1]; In Vitro Human Prostate Model, phenylephrine-induced contraction) | Ki ([2]; In Vivo Dog Prostate Model, phenylephrine-induced contraction, urethral pressure) [nmol/kg] | pA2 ([1]; block of phenylephrine-induced contraction of human prostate) | Urethral Pressure K i ([2]; inhibition of phenylephrine-induced increases in urethral pressure, anesthetized dogs) [nmol/kg] |
| --- | --- | --- | --- | --- |
| COC(=O)C1=C(C)NC(C)=C(C(=O)NCCCN2CCC(c3ccccc3)CC2)C1c1ccc([N+](=O)[O-])cc1 (racemic) [(±)-45, (±)-1,4-Dihydro-3-methoxycarbonyl-2,6-dimethyl-4-(4-nitrophenyl)-5-{N-[3-(4-phenylpiperidin-1-yl)propyl]}carboxamidopyridine hydrochloride hemihydrate] | 8.07 ± 0.13 | 12 |  |  |
| CNC(=O)C1=C(C)NC(C)=C(C(=O)NCCCN2CCC(c3ccccc3)(c3ccccc3)CC2)C1c1ccc([N+](=O)[O-])cc1 (stereo not shown) [Example 38, 1,4-Dihydro-2,6-dimethyl-5-(N-methyl)carboxamido-4-(4-nitrophenyl)-3-{N-[3-(4,4-diphenylpiperidin-1-yl)propyl]}carboxamidopyridine] |  |  | 8.98 ± 0.06 | 8 ± 1.5 |
